Data from patent US7416741B2, “Copper lowering treatment of inflammatory and fibrotic diseases” (The Regents of the University of Michigan, priority 2002, dated 2008).

Tests used:
[1] = In vitro copper complexing studies; settings: compared with ammonium salt of TM
[2] = Solubility and stability of TM salts; settings: other salts of TM
Description: Thus, other salts have been prepared and evaluated for solubility, stability and anticopper activity.

hAPP tg mice = settings: pharmacologic treatment of hAPP tg mice; cited from earlier work
[3] = system: Wilson's disease patients; settings: cited from earlier work
bleomycin mouse model = settings: in vivo; cited from earlier work
[4] = system: Wilson's disease patients; settings: at cupruresis of 2-3 mg
Protocol: Ingestion of copper is about 1 mg/day, with obligatory, non-urine losses of about 0.5 mg.

cancer patients = settings: cited from earlier work
[5] = therapeutic dose 1,000-2,000 mg/day

Compound: CCC[N+](CCC)(CCC)CCC.CCC[N+](CCC)(CCC)CCC.[S]=[Mo](=[S])([S-])[S-] [TPTM, tetrapropyl tetrathiomolybdate]
- in vitro copper complexing [1]: behave similarly to ammonium salt of TM
- solubility in water [2]: suitable solubility in water

Compound: C[N+](C)(C)CCO.C[N+](C)(C)CCO.[SH-].[SH-].[S]=[Mo]=[S] [choline TM]
- in vitro copper complexing [1]: behave similarly to ammonium salt of TM

Compound: Oc1c(I)cc(Cl)c2cccnc12 [clioquinol]
- amyloid pathology (hAPP tg mice): prevented

Compound: CC(C)Cc1ccc(C(C)C(=O)O)cc1 (centres unmarked) [ibuprofen]
- amyloid pathology (hAPP tg mice): prevented

Compound: CC(C)(S)[C@@H](N)C(=O)O [penicillamine]
- patients developing initial hypersensitivity syndrome ([3]; human, in vivo): about a quarter to a third of patients

Compound: Cc1ccc(=O)n(-c2ccccc2)c1 [perfenidone]
- efficacy in the bleomycin mouse model (bleomycin mouse model): effective in the bleomycin mouse model

Compound: CC[N+](CC)(CC)CC.CC[N+](CC)(CC)CC.[S]=[Mo](=[S])([S-])[S-] [tetraethyl TM]
- in vitro copper complexing [1]: behave similarly to ammonium salt of TM
- solubility in water [2]: suitable solubility in water

Compound: NCCNCCNCCN [trientine]
- negative copper balance [4]: 1.5 to 2.5 mg/day
- patients with proteinuria ([3]; after several weeks of use): about 20%
- cupruresis after the first few weeks of therapy [3, 5]: 2 to 3 mg
- cupruresis, initial [3, 5]: 4 to 5 mg

Compound: CC(=O)[O-].CC(=O)[O-].[Zn+2] [zinc, zinc acetate]
- copper balance induced ([3]; Wilson's patients, average): −0.35 mg daily
- time to achieve intestinal metallothionein induction and a negative copper balance ([3]; Wilson's patients): approximately two
- time to bring urine copper and nonceruloplasmin plasma copper down to subtoxic levels ([3]; zinc therapy): six

Compound: bleomycin
- patients developing pulmonary fibrosis (cancer patients): about 3%
